Data reported in article PMC6394990, “Detailed characterization of the solution kinetics and thermodynamics of biotin, biocytin and HABA binding to avidin and streptavidin” (PLoS ONE, 2019).
“And” between values parts separate entries of the source, which are not always exact repeats. Identical values can stand only once. Like-named read-outs stand apart in the source and are kept apart here.

How the values were obtained:
[1] = target: T1, streptavidin (SAV) (Streptomyces avidinii, UniProt P22629); experiment: Intrinsic lifetime, dynamic quantum yield and fraction of non-statically quenched molecules, SAV complex; format: physicochemical
T1 construct: purchased Sigma Aldrich (St. Louis, MO)
T1 sequence (P22629 25-183): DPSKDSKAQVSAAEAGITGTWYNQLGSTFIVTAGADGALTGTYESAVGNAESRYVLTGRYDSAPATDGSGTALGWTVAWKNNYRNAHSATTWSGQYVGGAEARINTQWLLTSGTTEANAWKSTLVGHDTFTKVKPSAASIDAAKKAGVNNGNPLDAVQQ

[2] = target: T2, de-glycosylated AV (Gallus gallus, UniProt P02701); experiment: Stopped-flow association kinetics with endoglycosidase H de-glycosylated avidin; format: binding; settings: deAV 15C (288.15 K), pH8
T2 construct: purchased Calbiochem (La Jolla, CA)
T2 sequence (P02701 25-152): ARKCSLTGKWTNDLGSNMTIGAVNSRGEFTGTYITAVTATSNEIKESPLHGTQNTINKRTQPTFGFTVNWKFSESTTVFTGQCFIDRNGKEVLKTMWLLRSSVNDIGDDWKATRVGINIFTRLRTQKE
Experimental: These reactions were carried out in a buffered solution of 10 mM Tris-HCl, 100 mM KCl, 2.5 mM MgCl2 and 1 mM CaCl2 at pH 8 and only AV-BcO reactions included pH 9 and 10. The concentrations, after mixing, were of 20 nM of dye-labeled B7 probe and 260 nM, 520 nM or 1040 nM of AV; and 200 nM, 300 nM, 400 nM or 800 nM of SAV at temperatures of 10, 15, 20 and 25°C. The deglycosylation of AV (for comparative association reactions) was carried out using the provided standard protocol with endoglycosidase H [47], both with and without incubation of a denaturant solution (2% SDS and 1M 2-mercaptoethanol).
The reactions were collected with the SF instrument, described previously. The fluorescence signal was collected through a 520 nm interference filter (Oriel Corp., Stratford, CT) with a detector time constant and SF dead time of 1 μs and 1 ms, respectively. The excitation light was provided by the Coherent Ar^+ ion laser (described above) at 488 nm with […] of incident power on the reaction cuvette. The laser source was followed by the photo-elastic modulator described above with the axis oriented 45^o with respect to the electric vector of the incident light and with the half-wave modulation (50 kHz) set for 488 nm excitation. The demodulation circuitry following the photomultiplier provided a DC(t) and a rectified AC(t) which were converted to digital data by a high-speed digitizer (PCI-5122) from National Instruments (Austin, TX) with 14-bit resolution and 100 MHz bandwidth, through channels 0 and 1. The data acquisition was controlled by LabVIEW (Vr 8) software at a collection rate of 6120 data points/second and stored in spreadsheets. The AC(t) and DC(t) data were baseline corrected before obtaining the signal ratio (Eq 4) as a function of time (ρt).

[3] = target: T1, streptavidin (SAV); experiment: Stopped-flow association kinetics of dye-labeled biotin probes binding to streptavidin (F(t), rF(t); Arrhenius plots/global fitting); parameters: kcal/mol (from Arrhenius slope) / Eon for BFl: unit not given here; settings: for halftime of association, F¯(t): probe 20 nM
Experimental: These reactions were carried out in a buffered solution of 10 mM Tris-HCl, 100 mM KCl, 2.5 mM MgCl2 and 1 mM CaCl2 at pH 8 and only AV-BcO reactions included pH 9 and 10. […] The deglycosylation of AV (for comparative association reactions) was carried out using the provided standard protocol with endoglycosidase H [47], both with and without incubation of a denaturant solution (2% SDS and 1M 2-mercaptoethanol).
The reactions were collected with the SF instrument, described previously. […] The AC(t) and DC(t) data were baseline corrected before obtaining the signal ratio (Eq 4) as a function of time (ρt).
The constant AGain is the instrumental amplitude gain and was evaluated by solving ρ(t) using the known steady state anisotropy (rss) of the complexes which is equivalent to the r(t) at t = ∞; and H, obtained from the equivalent grating factor (G) for the filters and photo multiplier tubes in the SF. For the probes used in here G was 0.82 and H = (1-G)/(1+G) = 0.099. Knowing Again and H, the AC(t) and DC(t) signals can be solved for r(t) and F(t) (Eqs 4 and 5) and the normalized fluorescence, F¯(t) , and corrected fluorescence anisotropy, rF¯(t), were obtained when F¯(0) and rF¯(0) were scaled to 1 at t = 0.
The F¯(t) (Eq 6) is equivalent to (I||) + 2 (I⊥) and proportional to quantum yield (QYi), molar absorptivity (εi) and to the formation or disappearance of the emitting species Xi(t); and rF¯(t) including the steady state anisotropies (rss) of each fluorescent species (Eq 7).
The possible reaction models were discriminated by the squared residuals of the observed and calculated association traces of both fluorescence and anisotropy fluorescence signals, F¯(t) and rF¯(t) , respectively.

[4] = target: T3, avidin (AV) (Gallus gallus, UniProt P02701); experiment: Quantum yields (QY), AV complex; format: physicochemical
T3 construct: purchased Calbiochem (La Jolla, CA)
T3 sequence (P02701 25-152): as above
Experimental: The lifetimes (τ), steady state anisotropies (rss), time-resolved anisotropies (rt) and quantum yields (QY) of the complexes (at 20 ± 0.1°C and pH 8) were collected with a dye-labeled B7 probe concentration of 20–40 nM and 1040–2080 nM of either protein (AV or SAV) to ensure that only one binding site in the tetramer was filled with a ligand (AB1 filling model).
The QY values were obtained by using a reference fluorophore of known quantum yield and were calculated according to Parker and Rees, where the reference dye was fluorescein in 0.1N sodium hydroxide solution [46]. The emission fluorescence scans were collected from 480 nm to 700 nm with the excitation light set at 460 nm provided by the xenon arc lamp described above. These measurements were made on the AB1 complexes at high protein concentration.

[5] = SAV complex, mono-ionic fluorescein species

With `O=C(CCCC[C@@H]1SC[C@@H]2NC(=O)N[C@@H]21)NCCNC(=O)c1ccc(-c2c3ccc(=O)cc-3oc3cc(O)ccc23)c(C(=O)O)c1` [BFl, Biotin-4-fluorescein] the “Natural Lifetime τ°” value ([1]; SAV complex, di-ionic fluorescein species) was 4.5 ± 0.1, the “Fraction of Non-Statically Quenched Dye 1-S” value [1, 5] was 0.18 ± 0.02 and the “Natural Lifetime τ°” value [1, 5] was 8.1 ± 0.1. For the same compound, the “1-S (4) = QY/F, fraction of non-statically quenched molecules” value ([1]; complex with SAV) was 0.14 and 0.14 ± 0.02, the “F (3) = Sat/t°” value ([1]; complex with SAV) was 0.80 ± 0.02 and the S ([1]; complex with SAV) was 0.86. For the same compound, the “t° (2), intrinsic lifetime of the fluorescence dye” value ([1]; complex with SAV) was 4.6 ± 0.1, the “ln(k)” value [2] was 15.5 and the “k(average)” value ([2]; full value) was 5.36E+06. For the same compound, the “k(average)” value ([2]; scaled) was 5.4, the “kon binding to SAV, fold faster than binding to AV” value ([3]; 25°C) was 4 X and the “Eon for BFl” value ([3]; Enthalpy block, SAV) was 6.0. For the same compound, the “kon by corrected fluorescence anisotropy rF(t)” value ([3]; SAV-BFl, 10 °C, 200 nM) was 3.75e+07 ± 1.2e+06 M⁻¹ s⁻¹, the kon ([3]; SAV-BFl, 10 °C, 200 nM, read-out: kon by corrected fluorescence anisotropy rF(t)) was 3.75e+07 M⁻¹ s⁻¹ and the kon ([3]; SAV-BFl, 10 °C, 200 nM, read-out: kon by fluorescence change F(t)) was 3.73e+07 M⁻¹ s⁻¹. The kon ([3]; SAV-BFl, 10 °C, read-out: kon, Average) was 3.74e+07 M⁻¹ s⁻¹, the “kon by corrected fluorescence anisotropy rF(t)” value ([3]; SAV-BFl, 15 °C, 200 nM) was 4.5e+07 ± 1e+06 M⁻¹ s⁻¹ and the kon ([3]; SAV-BFl, 15 °C, 200 nM, read-out: kon by corrected fluorescence anisotropy rF(t)) was 4.5e+07 M⁻¹ s⁻¹. The kon ([3]; SAV-BFl, 15 °C, 200 nM, read-out: kon by fluorescence change F(t)) was 4.48e+07 M⁻¹ s⁻¹, the “kon by corrected fluorescence anisotropy rF(t)” value ([3]; SAV-BFl, 15 °C, 400 nM) was 4.5e+07 ± 1.7e+06 M⁻¹ s⁻¹ and the kon ([3]; SAV-BFl, 15 °C, 400 nM, read-out: kon by corrected fluorescence anisotropy rF(t)) was 4.5e+07 M⁻¹ s⁻¹. The kon ([3]; SAV-BFl, 15 °C, 400 nM, read-out: kon by fluorescence change F(t)) was 4.59e+07 M⁻¹ s⁻¹, the “kon by corrected fluorescence anisotropy rF(t)” value ([3]; SAV-BFl, 15 °C, 800 nM) was 4.38e+07 ± 1.9e+06 M⁻¹ s⁻¹ and the kon ([3]; SAV-BFl, 15 °C, 800 nM, read-out: kon by corrected fluorescence anisotropy rF(t)) was 4.38e+07 M⁻¹ s⁻¹. The kon ([3]; SAV-BFl, 15 °C, 800 nM, read-out: kon by fluorescence change F(t)) was 4.2e+07 M⁻¹ s⁻¹, the kon ([3]; SAV-BFl, 15 °C, read-out: kon, Average) was 4.44e+07 M⁻¹ s⁻¹ and the “kon by corrected fluorescence anisotropy rF(t)” value ([3]; SAV-BFl, 20 °C, 200 nM) was 6.25e+07 ± 1.6e+06 M⁻¹ s⁻¹. For the same compound, the kon ([3]; SAV-BFl, 20 °C, 200 nM, read-out: kon by corrected fluorescence anisotropy rF(t)) was 6.25e+07 M⁻¹ s⁻¹, the kon ([3]; SAV-BFl, 20 °C, 200 nM, read-out: kon by fluorescence change F(t)) was 6.23e+07 M⁻¹ s⁻¹ and the kon ([3]; SAV-BFl, 20 °C, read-out: kon, Average) was 6.24e+07 M⁻¹ s⁻¹. For the same compound, the “kon by corrected fluorescence anisotropy rF(t)” value ([3]; SAV-BFl, 25 °C, 200 nM) was 7.4e+07 ± 2e+06 M⁻¹ s⁻¹, the kon ([3]; SAV-BFl, 25 °C, 200 nM, read-out: kon by corrected fluorescence anisotropy rF(t)) was 7.4e+07 M⁻¹ s⁻¹ and the kon ([3]; SAV-BFl, 25 °C, 200 nM, read-out: kon by fluorescence change F(t)) was 7.54e+07 M⁻¹ s⁻¹. For the same compound, the kon ([3]; SAV-BFl, 25 °C, read-out: kon, Average) was 7.47e+07 M⁻¹ s⁻¹, the kon ([3]; SAV, 4°C, calculated by an Arrhenius plot, read-out: kon) was 2.6e+07 M⁻¹ s⁻¹ and the “ln(k)” value ([3]; SAV, 10 (283.15 K)) was 17.6. The “k(average)” value ([3]; SAV, 10 (283.15 K), k (full value)) was 4.55E+07, the “k(average)” value ([3]; SAV, 10 (283.15 K), k (scaled)) was 45.5 and the “ln(k)” value ([3]; SAV, 15 (288.15 K)) was 17.8. For the same compound, the “k(average)” value ([3]; SAV, 15 (288.15 K), k (full value)) was 5.31E+07, the “k(average)” value ([3]; SAV, 15 (288.15 K), k (scaled)) was 53.1 and the “ln(k)” value ([3]; SAV, 20 (293.15 K)) was 17.9. For the same compound, the “k(average)” value ([3]; SAV, 20 (293.15 K), k (scaled)) was 58.6, the “ln(k)” value ([3]; SAV, 25 (298.15 K)) was 18.1 and the “k(average)” value ([3]; SAV, 25 (298.15 K), k (full value)) was 7.47E+07. The “k(average)” value ([3]; SAV, 25 (298.15 K), k (scaled)) was 74.7, the kon ([3]; SAV, 25°C and pH 8) was 7.5 ± 0.2 x 10^7 M^-1s^-1 and the “Ea^Forward” value ([3]; SAV, pH 8) was 5.3 ± 0.3 kcal/mol. The “ΔG^ǂ” value ([3]; SAV, pH 8, forward) was 3.3 ± 0.6 kcal/mol, the “ΔS^ǂ” value ([3]; SAV, pH 8, forward) was 6.6 ± 0.5 cal/°K·mol and the “kcal/mol (from Arrhenius slope)” value ([3]; SAV, ph8) was -8101. The “slope (Arrhenius linear fit)” value ([3]; SAV, ph8) was -4076.8, the kon ([3]; pH 8, SAV, 25°C and pH 8) was ~7.5e+07 M⁻¹ s⁻¹ and the kon ([3]; pH 8, SAV, pH 8, 10°C, read-out: kon) was 4.54e+07 ± 1e+06 M⁻¹ s⁻¹. The kon ([3]; pH 8, SAV, pH 8, 15°C, read-out: kon) was 5.31e+07 ± 2e+06 M⁻¹ s⁻¹, the kon ([3]; pH 8, SAV, pH 8, 20°C, read-out: kon) was 5.86e+07 ± 1.6e+06 M⁻¹ s⁻¹ and the kon ([3]; pH 8, SAV, pH 8, 25°C, read-out: kon) was 7.47e+07 ± 2e+06 M⁻¹ s⁻¹. The “halftime of association, F¯(t)” value ([3]; SAV 200 nM, pH 8, 20°C) was 77.3 ms, the “halftime of association, F¯(t)” value ([3]; SAV 400 nM, pH 8, 20°C) was 37.7 ms and the “halftime of association, F¯(t)” value ([3]; SAV 800 nM, pH 8, 20°C) was 20.6 ms. The “Quantum Yield QY” value ([4]; AV complex (AB1)) was 0.44 ± 0.01, the “488, correction, absR/abs” value ([4]; complex with AV) was 1.171 and the QY ([4]; complex with AV) was 0.44 and 0.44 ± 0.01. For the same compound, the “QY multiplied by the 488 correction absR/abs” value ([4]; complex with AV) was 0.5154 and the dQY-AV ([4]; fractional change of QY, AV complex against dye) was -0.1538.
